Experiments:
Type in all cases: functional, cell-based
[1] = biological target: T1, Solute carrier organic anion transporter family member 1A1 (Rattus norvegicus, UniProt P46720); assay: TP_TRANSPORTER: inhibition of Taurocholate uptake (Taurocholate: 0.5 uM, Pravastatin: 50 uM) in Oatp1-expressing 293c18 cells; conditions: human, hek293-ebna
T1 sequence (P46720 whole entry): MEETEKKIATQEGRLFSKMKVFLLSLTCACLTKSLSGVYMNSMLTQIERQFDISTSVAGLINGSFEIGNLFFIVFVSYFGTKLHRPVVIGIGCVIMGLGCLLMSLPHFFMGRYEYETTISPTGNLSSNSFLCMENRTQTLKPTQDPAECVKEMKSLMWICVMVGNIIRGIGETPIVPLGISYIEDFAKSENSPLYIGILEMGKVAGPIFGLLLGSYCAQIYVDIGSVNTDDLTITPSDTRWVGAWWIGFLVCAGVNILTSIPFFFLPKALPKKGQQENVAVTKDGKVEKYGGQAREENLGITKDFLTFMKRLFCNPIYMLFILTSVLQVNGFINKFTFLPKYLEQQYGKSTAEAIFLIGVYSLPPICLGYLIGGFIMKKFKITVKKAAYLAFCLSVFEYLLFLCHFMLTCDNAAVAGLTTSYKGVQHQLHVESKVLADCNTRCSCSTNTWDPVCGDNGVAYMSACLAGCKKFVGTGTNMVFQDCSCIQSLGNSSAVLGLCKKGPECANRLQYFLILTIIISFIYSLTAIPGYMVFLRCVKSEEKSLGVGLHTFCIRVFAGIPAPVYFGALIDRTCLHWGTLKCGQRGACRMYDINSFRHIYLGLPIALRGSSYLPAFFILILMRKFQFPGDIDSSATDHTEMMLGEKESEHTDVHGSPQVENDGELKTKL

[2] = biological target: T2, Solute carrier organic anion transporter family member 1A4 (Rattus norvegicus, UniProt O35913); assay: TP_TRANSPORTER: uptake in Oatp2-expressing 293c18 cells; conditions: human, hek293-ebna
T2 sequence (O35913 whole entry): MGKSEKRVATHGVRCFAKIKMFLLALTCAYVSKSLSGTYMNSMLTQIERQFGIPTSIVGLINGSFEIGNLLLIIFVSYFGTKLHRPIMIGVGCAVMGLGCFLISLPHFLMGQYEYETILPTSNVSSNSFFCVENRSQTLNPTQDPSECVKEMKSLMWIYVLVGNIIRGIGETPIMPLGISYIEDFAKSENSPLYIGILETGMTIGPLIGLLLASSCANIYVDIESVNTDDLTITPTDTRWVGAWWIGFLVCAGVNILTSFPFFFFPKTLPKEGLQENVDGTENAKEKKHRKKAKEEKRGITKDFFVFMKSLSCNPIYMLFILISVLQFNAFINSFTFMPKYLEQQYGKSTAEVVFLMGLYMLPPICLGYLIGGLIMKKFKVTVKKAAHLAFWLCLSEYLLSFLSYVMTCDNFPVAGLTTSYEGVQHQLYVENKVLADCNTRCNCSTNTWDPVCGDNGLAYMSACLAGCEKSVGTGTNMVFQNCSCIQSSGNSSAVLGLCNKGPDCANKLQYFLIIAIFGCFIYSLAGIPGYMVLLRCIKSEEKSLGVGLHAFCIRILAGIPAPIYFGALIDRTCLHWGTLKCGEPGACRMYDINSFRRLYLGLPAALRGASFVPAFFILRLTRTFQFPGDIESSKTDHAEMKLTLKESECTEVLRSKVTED

[3] = biological target: T3, Solute carrier organic anion transporter family member 1A2 (Homo sapiens, UniProt P46721); assay: TP_TRANSPORTER: uptake in OATP-A-expressing 293c18 cell; conditions: hek293-ebna
T3 sequence (P46721 whole entry): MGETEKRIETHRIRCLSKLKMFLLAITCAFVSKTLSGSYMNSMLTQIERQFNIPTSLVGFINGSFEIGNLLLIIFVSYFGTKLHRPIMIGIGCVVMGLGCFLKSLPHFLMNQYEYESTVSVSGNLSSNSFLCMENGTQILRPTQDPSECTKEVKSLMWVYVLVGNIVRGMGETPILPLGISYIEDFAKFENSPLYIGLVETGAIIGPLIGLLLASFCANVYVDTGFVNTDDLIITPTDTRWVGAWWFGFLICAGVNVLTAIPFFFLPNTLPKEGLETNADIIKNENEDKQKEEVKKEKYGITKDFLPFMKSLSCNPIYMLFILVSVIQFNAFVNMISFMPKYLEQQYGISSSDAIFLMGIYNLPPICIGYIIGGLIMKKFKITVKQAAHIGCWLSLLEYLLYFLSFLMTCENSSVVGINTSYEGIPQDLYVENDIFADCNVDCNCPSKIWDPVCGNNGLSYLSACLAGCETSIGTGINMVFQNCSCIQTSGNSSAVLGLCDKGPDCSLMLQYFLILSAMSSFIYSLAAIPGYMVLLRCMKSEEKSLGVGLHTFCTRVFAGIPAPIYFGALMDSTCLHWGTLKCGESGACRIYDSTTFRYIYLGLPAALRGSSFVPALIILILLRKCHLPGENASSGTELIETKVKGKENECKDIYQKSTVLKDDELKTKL

Activity [1]: inhibitor [+]
Activity [2]: is not a substrate [-]
Activity [3]: is not a substrate [-]
Compound: CC[C@H](C)C(=O)O[C@H]1C[C@H](O)C=C2C=C[C@H](C)[C@H](CC[C@@H](O)C[C@@H](O)CC(=O)O)[C@H]21 [PRAVASTATIN]
